# Measurements taken from ChEMBL document CHEMBL4390667, “Novel tacrine-tryptophan hybrids: Multi-target directed ligands as potential treatment for Alzheimer's disease” (Eur J Med Chem, 2019).
# Calls of active or inactive are those of the source. The calls are words filed in the database; no cut-off is given here.
# Experiments:
# Acetylcholinesterase [1] = molecular target: Acetylcholinesterase (Homo sapiens, UniProt P22303)
# Description: Inhibition of human recombinant AChE using acetylthiocholine iodide as substrate preincubated for 5 mins followed by substrate addition and measured over 2 mins by UV-Vis spectrophotometric analysis based Ellman's method
# Cholinesterase = Cholinesterase (Homo sapiens, UniProt P06276)
# Description: Inhibition of human recombinant BChE using butyrylthiocholine iodide as substrate preincubated for 5 mins followed by substrate addition and measured over 2 mins by UV-Vis spectrophotometric analysis based Ellman's method
# Nitric oxide synthase 1 = Nitric oxide synthase 1 (Rattus norvegicus, UniProt P29476)
# Sequence of Nitric oxide synthase 1 (P29476 whole entry, looked up): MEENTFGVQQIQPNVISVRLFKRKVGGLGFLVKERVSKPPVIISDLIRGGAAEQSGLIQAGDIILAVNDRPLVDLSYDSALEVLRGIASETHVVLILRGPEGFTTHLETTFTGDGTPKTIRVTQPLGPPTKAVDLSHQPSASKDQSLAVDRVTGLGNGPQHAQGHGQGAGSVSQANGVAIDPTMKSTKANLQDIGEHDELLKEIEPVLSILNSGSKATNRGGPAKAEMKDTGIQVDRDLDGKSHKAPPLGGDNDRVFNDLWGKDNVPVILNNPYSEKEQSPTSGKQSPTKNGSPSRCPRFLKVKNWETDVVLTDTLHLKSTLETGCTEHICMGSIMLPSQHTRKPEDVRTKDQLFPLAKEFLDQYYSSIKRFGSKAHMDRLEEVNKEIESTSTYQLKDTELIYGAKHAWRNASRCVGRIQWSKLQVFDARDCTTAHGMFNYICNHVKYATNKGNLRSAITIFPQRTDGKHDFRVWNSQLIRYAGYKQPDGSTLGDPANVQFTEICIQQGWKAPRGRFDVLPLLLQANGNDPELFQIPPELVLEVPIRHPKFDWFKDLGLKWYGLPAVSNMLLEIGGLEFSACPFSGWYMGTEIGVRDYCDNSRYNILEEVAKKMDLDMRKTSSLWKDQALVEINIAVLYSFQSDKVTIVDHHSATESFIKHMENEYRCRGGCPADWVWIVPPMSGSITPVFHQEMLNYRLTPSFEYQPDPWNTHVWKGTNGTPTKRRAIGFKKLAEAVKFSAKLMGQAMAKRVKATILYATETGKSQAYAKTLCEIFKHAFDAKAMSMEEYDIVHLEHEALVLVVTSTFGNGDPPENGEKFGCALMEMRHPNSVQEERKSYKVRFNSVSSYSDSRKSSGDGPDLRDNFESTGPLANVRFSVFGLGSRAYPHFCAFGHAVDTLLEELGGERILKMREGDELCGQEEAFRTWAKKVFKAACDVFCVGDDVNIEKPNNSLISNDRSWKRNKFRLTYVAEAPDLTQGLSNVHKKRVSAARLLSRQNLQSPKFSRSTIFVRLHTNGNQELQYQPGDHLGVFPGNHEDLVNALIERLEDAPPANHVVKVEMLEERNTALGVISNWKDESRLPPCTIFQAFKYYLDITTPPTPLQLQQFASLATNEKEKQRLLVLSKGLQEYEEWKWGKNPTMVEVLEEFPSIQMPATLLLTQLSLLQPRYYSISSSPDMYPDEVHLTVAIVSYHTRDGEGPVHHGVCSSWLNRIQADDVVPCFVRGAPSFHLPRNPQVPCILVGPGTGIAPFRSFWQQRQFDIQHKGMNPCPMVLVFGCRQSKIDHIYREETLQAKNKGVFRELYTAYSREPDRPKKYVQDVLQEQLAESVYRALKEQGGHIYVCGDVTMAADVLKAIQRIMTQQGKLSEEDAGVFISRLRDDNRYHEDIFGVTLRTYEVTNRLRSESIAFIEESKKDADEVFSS
# Description: Inhibition of nNOS in Wistar rat cortical homogenates incubated for 30 mins
# [2] = pampa, pH 7.4, 100 µM
# Description: Effective permeability of the compound in PBS buffer at pH 7.4 at 100 uM after 3 to 6 hrs by PAMPA
# CHO-K1 = assay: cells; settings: Cricetulus griseus, CHO-K1, 24 h
# Description: Cytotoxicity against CHOK1 cells assessed as reduction in cell viability incubated for 24 hrs by MTT assay
# HepG2 = assay: cells; settings: Homo sapiens, HepG2, 24 h
# Description: Cytotoxicity against human HepG2 cells assessed as reduction in cell viability incubated for 24 hrs by MTT assay
# Acetylcholinesterase [3] = molecular target: Acetylcholinesterase (Electrophorus electricus, UniProt O42275); assay: Displacement of propidium iodide from peripheral binding site of electric eel AChE assessed as dissociation constant at 8 to 56 uM by spectrofluorometry based Taylor and Lappi method
# Sequence of Acetylcholinesterase (Electrophorus electricus, UniProt O42275) (O42275 whole entry): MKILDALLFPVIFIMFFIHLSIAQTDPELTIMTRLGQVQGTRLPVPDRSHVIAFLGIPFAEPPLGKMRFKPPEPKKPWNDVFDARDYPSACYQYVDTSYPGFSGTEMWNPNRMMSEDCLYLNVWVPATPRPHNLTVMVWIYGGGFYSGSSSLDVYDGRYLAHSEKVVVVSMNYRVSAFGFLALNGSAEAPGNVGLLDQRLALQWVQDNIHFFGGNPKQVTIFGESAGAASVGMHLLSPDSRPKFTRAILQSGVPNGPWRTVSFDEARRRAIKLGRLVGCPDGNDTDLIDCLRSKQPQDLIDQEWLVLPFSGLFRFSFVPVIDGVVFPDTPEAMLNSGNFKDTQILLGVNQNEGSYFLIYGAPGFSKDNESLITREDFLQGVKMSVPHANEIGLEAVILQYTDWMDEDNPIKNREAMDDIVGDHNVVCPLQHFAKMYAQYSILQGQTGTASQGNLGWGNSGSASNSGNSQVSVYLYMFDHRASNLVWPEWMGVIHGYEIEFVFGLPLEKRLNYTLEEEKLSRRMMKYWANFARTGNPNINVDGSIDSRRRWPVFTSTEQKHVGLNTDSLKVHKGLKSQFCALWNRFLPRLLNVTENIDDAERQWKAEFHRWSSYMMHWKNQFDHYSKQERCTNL
# [4] = Toxicity in Wistar rat assessed as change in body weight weight at 70 mg/kg, ip after 24 and 48 hrs; type: organism-based; settings: in vivo
# [5] = Toxicity in ip dosed Wistar rat assessed as maximum tolerated dose measured during first 2 hrs then periodically for 48 hrs; type: organism-based; settings: in vivo
# Rattus norvegicus [6] = assay: Antialzhemeric activity in Wistar rat model of scopolamine-induced cognition deficit assessed as effect on escape latency at 10 nM, icv dosed 60 mins prior to training trial by Morris water maze test; type: functional, organism-based
# Rattus norvegicus [7] = assay: Antialzhemeric activity in Wistar rat model of scopolamine-induced cognition deficit assessed as effect on distance moved at 10 nM, icv dosed 60 mins prior to training trial by Morris water maze test; type: functional, organism-based
# Rattus norvegicus [8] = assay: Antialzhemeric activity in Wistar rat model of scopolamine-induced cognition deficit assessed as effect on average distance from platform at 10 nM, icv dosed 60 mins prior to training trial by Morris water maze test; type: functional, organism-based
# Rattus norvegicus [9] = assay: Antialzhemeric activity in Wistar rat model of scopolamine-induced cognition deficit assessed as effect on time in target sector at 10 nM, icv dosed 60 mins prior to training trial by Morris water maze test; type: functional, organism-based
# Rattus norvegicus [10] = assay: Antialzhemeric activity in Wistar rat model of scopolamine-induced cognition deficit assessed as effect on distance moved at 100 nM, icv dosed 60 mins prior to training trial by Morris water maze test; type: functional, organism-based
# Rattus norvegicus [11] = assay: Antialzhemeric activity in Wistar rat model of scopolamine-induced cognition deficit assessed as effect on escape latency at 100 nM, icv dosed 60 mins prior to training trial by Morris water maze test; type: functional, organism-based
# Rattus norvegicus [12] = assay: Antialzhemeric activity in Wistar rat model of scopolamine-induced cognition deficit assessed as effect on average distance from platform at 100 nM, icv dosed 60 mins prior to training trial by Morris water maze test; type: functional, organism-based
# Rattus norvegicus [13] = assay: Antialzhemeric activity in Wistar rat model of scopolamine-induced cognition deficit assessed as effect on time in target sector at 100 nM, icv dosed 60 mins prior to training trial by Morris water maze test; type: functional, organism-based
# Rattus norvegicus [14] = assay: Antialzhemeric activity in icv dosed Wistar rat model of scopolamine-induced cognition deficit assessed as effect on distance moved dosed 60 mins prior to training trial by Morris water maze test; type: functional, organism-based
# Rattus norvegicus [15] = assay: Antialzhemeric activity in icv dosed Wistar rat model of scopolamine-induced cognition deficit assessed as effect on escape latency dosed 60 mins prior to training trial by Morris water maze test; type: functional, organism-based
# Rattus norvegicus [16] = assay: Antialzhemeric activity in icv dosed Wistar rat model of scopolamine-induced cognition deficit assessed as effect on average distance from platform dosed 60 mins prior to training trial by Morris water maze test; type: functional, organism-based
# Rattus norvegicus [17] = assay: Antialzhemeric activity in icv dosed Wistar rat model of scopolamine-induced cognition deficit assessed as effect on time in target sector dosed 60 mins prior to training trial by Morris water maze test; type: functional, organism-based
# [18] = Toxicity in Wistar rat assessed as induction of partial piloerection at 70 mg/kg, ip measured during first 2 hrs then periodically for 48 hrs; type: organism-based; settings: in vivo
# [19] = Toxicity in Wistar rat assessed as induction of persistent oculonasal discharge at 70 mg/kg, ip measured during first 2 hrs then periodically for 48 hrs; type: organism-based; settings: in vivo
# [20] = Toxicity in Wistar rat assessed as induction of intermittent abnormal breathing pattern at 70 mg/kg, ip measured during first 2 hrs then periodically for 48 hrs; type: organism-based; settings: in vivo
# [21] = Toxicity in Wistar rat assessed as induction of intermittent tremors and prostration at 70 mg/kg, ip measured during first 2 hrs then periodically for 48 hrs; type: organism-based; settings: in vivo
# [22] = Toxicity in Wistar rat assessed as induction of diminishing spontaneously and prostration at 70 mg/kg, ip measured during first 2 hrs; type: organism-based; settings: in vivo
# [23] = Toxicity in Wistar rat assessed as effect on distance moved at 100 nM, icv by Morris water maze assay; settings: in vivo, icv_or_intrathecal, 0.1 µM
# [24] = Toxicity in Wistar rat assessed as effect on escape latency at 100 nM, icv by Morris water maze assay; settings: in vivo, icv_or_intrathecal, 0.1 µM
# [25] = Toxicity in Wistar rat assessed as effect on average distance from platform at 100 nM, icv by Morris water maze assay; settings: in vivo, icv_or_intrathecal, 0.1 µM
# [26] = Toxicity in Wistar rat assessed as effect on time spent in the target sector at 100 nM, icv by Morris water maze assay; settings: in vivo, icv_or_intrathecal, 0.1 µM
# [27] = Toxicity in Wistar rat assessed as induction of salivation at 100 nM, icv by Morris water maze assay; settings: in vivo, icv_or_intrathecal, 0.1 µM
# [28] = Toxicity in Wistar rat assessed as induction of tremors at 100 nM, icv by Morris water maze assay; settings: in vivo, icv_or_intrathecal, 0.1 µM
# Sequence of Acetylcholinesterase (Homo sapiens, UniProt P22303) (P22303 whole entry): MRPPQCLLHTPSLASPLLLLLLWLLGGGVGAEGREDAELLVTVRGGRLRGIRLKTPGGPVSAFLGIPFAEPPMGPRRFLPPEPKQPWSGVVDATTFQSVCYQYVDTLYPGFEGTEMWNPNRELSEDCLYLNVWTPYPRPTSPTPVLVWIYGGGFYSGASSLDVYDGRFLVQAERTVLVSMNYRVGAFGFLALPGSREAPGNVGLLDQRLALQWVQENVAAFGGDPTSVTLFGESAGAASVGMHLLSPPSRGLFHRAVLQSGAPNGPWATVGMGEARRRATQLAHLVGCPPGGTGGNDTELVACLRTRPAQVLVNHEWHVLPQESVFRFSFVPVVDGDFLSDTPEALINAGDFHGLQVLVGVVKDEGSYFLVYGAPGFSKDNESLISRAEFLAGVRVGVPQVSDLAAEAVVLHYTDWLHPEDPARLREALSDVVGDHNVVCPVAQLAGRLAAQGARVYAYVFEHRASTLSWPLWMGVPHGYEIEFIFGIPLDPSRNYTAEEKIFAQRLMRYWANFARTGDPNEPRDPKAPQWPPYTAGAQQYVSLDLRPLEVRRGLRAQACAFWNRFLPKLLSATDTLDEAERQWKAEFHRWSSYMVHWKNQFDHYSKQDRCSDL
# Sequence of Cholinesterase (P06276 whole entry): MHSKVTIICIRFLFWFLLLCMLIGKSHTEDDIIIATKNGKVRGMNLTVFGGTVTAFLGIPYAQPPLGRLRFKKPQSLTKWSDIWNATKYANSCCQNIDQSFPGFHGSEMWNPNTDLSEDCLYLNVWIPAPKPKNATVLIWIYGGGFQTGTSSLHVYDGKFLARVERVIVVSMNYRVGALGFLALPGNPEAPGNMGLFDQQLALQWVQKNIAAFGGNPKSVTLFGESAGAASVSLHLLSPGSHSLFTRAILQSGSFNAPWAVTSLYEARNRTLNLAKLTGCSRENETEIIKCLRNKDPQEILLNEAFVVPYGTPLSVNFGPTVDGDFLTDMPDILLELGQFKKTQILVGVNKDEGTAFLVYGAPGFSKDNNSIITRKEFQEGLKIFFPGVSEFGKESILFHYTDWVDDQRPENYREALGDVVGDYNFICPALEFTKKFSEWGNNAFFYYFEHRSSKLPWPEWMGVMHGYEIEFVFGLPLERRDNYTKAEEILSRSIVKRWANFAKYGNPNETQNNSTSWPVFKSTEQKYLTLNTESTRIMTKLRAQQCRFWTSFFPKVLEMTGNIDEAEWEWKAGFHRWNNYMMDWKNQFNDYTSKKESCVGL
smiles,measurement,setting,value
Cl.Cl.N[C@@H](Cc1c[nH]c2ccccc12)C(=O)NCCCCCCCCNc1c2c(nc3cc(Cl)ccc13)CCCC2,IC50,Acetylcholinesterase [1],50 nM
same,IC50,Cholinesterase,0.14 µM
same,IC50,Nitric oxide synthase 1,43 µM
same,permeability,[2],Permeable
same,IC50,CHO-K1,65 µM
COc1ccc2nc3c(c(NCCNC(=O)[C@@H](N)Cc4c[nH]c5ccccc45)c2c1)CCCC3.Cl.Cl,IC50,Acetylcholinesterase [1],5700 nM
same,IC50,Cholinesterase,0.48 µM
same,IC50,Nitric oxide synthase 1,19 µM
same,permeability,[2],Impermeable
same,IC50,CHO-K1,131 µM
N[C@@H](Cc1c[nH]c2ccccc12)C(=O)NCCCCCNc1c2c(nc3cc(Cl)ccc13)CCCC2,IC50,Acetylcholinesterase [1],76 nM
same,IC50,Cholinesterase,0.074 µM
same,IC50,Nitric oxide synthase 1,27 µM
same,IC50,CHO-K1,21 µM
Nc1c2c(nc3cc(Cl)ccc13)CCCC2,permeability,[2],Permeable
same,IC50,CHO-K1,71 µM
same,IC50,HepG2,71 µM
O=C(CCCCCNc1c2c(nc3cc(Cl)ccc13)CCCC2)NCCc1cc2ccccc2[nH]1,IC50,Acetylcholinesterase [1],0.73 nM
same,IC50,Cholinesterase,0.18 µM
same,permeability,[2],Permeable
Cl.Cl.N[C@@H](Cc1c[nH]c2ccccc12)C(=O)NCCCCCCNc1c2c(nc3cc(Cl)ccc13)CCCC2,Kd,Acetylcholinesterase [3],4.82 µM
same,Activity,[4],Non-Toxic
same,MTD at 48 h,[5],70 mg/kg
same,Activity,Rattus norvegicus [6],Active
same,Activity,Rattus norvegicus [7],inactive
same,Activity,Rattus norvegicus [8],Active
same,Activity,Rattus norvegicus [9],Active
same,Activity,Rattus norvegicus [10],Active
same,Activity,Rattus norvegicus [11],Active
same,Activity,Rattus norvegicus [12],Active
same,Activity,Rattus norvegicus [13],Active
same,Activity,Rattus norvegicus [14],Dose-dependent effect
same,Activity,Rattus norvegicus [15],Dose-dependent effect
same,Activity,Rattus norvegicus [16],Dose-dependent effect
same,Activity,Rattus norvegicus [17],Dose-dependent effect
same,Activity,[18],Toxic
same,Activity,[19],Toxic
same,Activity,[20],Toxic
same,Activity,[21],Toxic
same,Activity,[22],Toxic
same,Activity,[23],Non-Toxic
same,Activity,[24],Non-Toxic
same,Activity,[25],Non-Toxic
same,Activity,[26],Non-Toxic
same,Activity,[27],Non-Toxic
same,Activity,[28],Non-Toxic
same,IC50,Acetylcholinesterase [1],6.3 nM
same,IC50,Cholinesterase,0.0091 µM
same,IC50,Nitric oxide synthase 1,26 µM
same,permeability,[2],Permeable
same,IC50,CHO-K1,21 µM
same,IC50,HepG2,4.9 µM
O=C(CCCCCCNc1c2c(nc3cccc(Cl)c13)CCCC2)NCCc1c[nH]c2ccccc12,IC50,Acetylcholinesterase [1],0.008 nM
same,IC50,Cholinesterase,0.0078 µM
COc1ccc2nc3c(c(NCCCNC(=O)[C@@H](N)Cc4c[nH]c5ccccc45)c2c1)CCCC3.Cl.Cl,IC50,Acetylcholinesterase [1],1300 nM
same,IC50,Cholinesterase,1.8 µM
same,IC50,Nitric oxide synthase 1,30 µM
same,permeability,[2],Impermeable
same,IC50,CHO-K1,95 µM
Cl.Cl.N[C@@H](Cc1c[nH]c2ccccc12)C(=O)NCCCCNc1c2c(nc3ccccc13)CCCC2,IC50,Acetylcholinesterase [1],1300 nM
same,IC50,Cholinesterase,0.123 µM
same,IC50,Nitric oxide synthase 1,18 µM
same,permeability,[2],Permeable
same,IC50,CHO-K1,34 µM
N[C@@H](Cc1c[nH]c2ccccc12)C(=O)NCCCCNc1c2c(nc3cc(Cl)ccc13)CCCC2,IC50,Acetylcholinesterase [1],62 nM
same,IC50,Cholinesterase,0.12 µM
same,IC50,Nitric oxide synthase 1,26 µM
same,IC50,CHO-K1,16 µM
COc1ccc2nc3c(c(NCCCCCCCNC(=O)[C@@H](N)Cc4c[nH]c5ccccc45)c2c1)CCCC3,IC50,Acetylcholinesterase [1],980 nM
same,IC50,Cholinesterase,0.078 µM
same,IC50,Nitric oxide synthase 1,26 µM
same,IC50,CHO-K1,14 µM
same,IC50,HepG2,5.6 µM
CNC(=N)NCCC[C@H](N)C(=O)OC,IC50,Nitric oxide synthase 1,4.1 µM
N[C@@H](Cc1c[nH]c2ccccc12)C(=O)NCCCNc1c2c(nc3cc(Cl)ccc13)CCCC2,IC50,Acetylcholinesterase [1],70 nM
same,IC50,Cholinesterase,0.14 µM
same,IC50,Nitric oxide synthase 1,31 µM
same,IC50,CHO-K1,29 µM
COc1ccc2nc3c(c(N)c2c1)CCCC3,permeability,[2],Permeable
same,IC50,CHO-K1,63 µM
same,IC50,HepG2,120 µM
Cl.Cl.N[C@@H](Cc1c[nH]c2ccccc12)C(=O)NCCCCCCCNc1c2c(nc3ccccc13)CCCC2,IC50,Acetylcholinesterase [1],120 nM
same,IC50,Cholinesterase,0.025 µM
same,IC50,Nitric oxide synthase 1,32 µM
same,permeability,[2],Impermeable
same,IC50,CHO-K1,248 µM
